Values after ≈ are worked out from the molar mass of the structure shown.
What was measured:
[1] = Solubility of compound in PBS buffer at pH 6.5; format: physicochemical
[2] = molecular target: Mitogen-activated protein kinase 7 (Homo sapiens, UniProt Q13164); experiment: Inhibition of recombinant human GST-tagged ERK5 (1 to 398 assessed as phosphorylated peptide substrate incubated for 60 mins by TR-FRET based biochemical assay
[3] = Lipophilicity, logD of compound at pH 7.5; format: physicochemical; details: buffer

Chain of Mitogen-activated protein kinase 7 (Q13164 whole entry): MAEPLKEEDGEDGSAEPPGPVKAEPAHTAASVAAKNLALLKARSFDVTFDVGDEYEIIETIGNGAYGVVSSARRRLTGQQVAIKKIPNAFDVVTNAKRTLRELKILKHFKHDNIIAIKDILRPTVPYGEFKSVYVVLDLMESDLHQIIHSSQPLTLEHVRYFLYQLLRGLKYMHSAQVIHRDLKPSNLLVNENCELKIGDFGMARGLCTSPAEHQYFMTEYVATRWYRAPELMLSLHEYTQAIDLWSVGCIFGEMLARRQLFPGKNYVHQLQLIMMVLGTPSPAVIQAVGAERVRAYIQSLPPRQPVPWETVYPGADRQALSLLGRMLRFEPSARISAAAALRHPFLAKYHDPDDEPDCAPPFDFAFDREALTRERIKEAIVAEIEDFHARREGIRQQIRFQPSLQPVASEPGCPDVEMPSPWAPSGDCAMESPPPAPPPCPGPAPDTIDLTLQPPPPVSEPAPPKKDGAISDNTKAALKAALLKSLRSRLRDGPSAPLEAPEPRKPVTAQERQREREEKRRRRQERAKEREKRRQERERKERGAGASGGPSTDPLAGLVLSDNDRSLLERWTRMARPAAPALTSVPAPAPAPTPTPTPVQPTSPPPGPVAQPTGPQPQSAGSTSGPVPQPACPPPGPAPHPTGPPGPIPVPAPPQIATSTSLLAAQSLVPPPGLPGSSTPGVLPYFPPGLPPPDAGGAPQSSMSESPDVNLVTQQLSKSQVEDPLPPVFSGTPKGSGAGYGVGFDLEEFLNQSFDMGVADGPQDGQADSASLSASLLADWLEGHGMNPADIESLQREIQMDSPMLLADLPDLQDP

Work on `Cc1ncsc1-c1ccc(CNC(=O)[C@@H]2C[C@@H](O)CN2C(=O)[C@@H](NC(=O)COCCOCCNC(=O)COc2cnc3c(C4CCN(C(=O)c5ccc(OC(F)(F)F)cc5)CC4)ncnc3c2)C(C)(C)C)cc1` yielded a solubility [1] of 7 µg/mL (≈ 6.77 µM), an IC50 [2] of 1.23 µM and a logD [3] of 2.68.
